Measured values as given in US20250059201A1, “CAMPTOTHECIN COMPOUND AND CONJUGATE THEREOF” (priority 2021, published 2025).
Where “and” joins values, the source holds several entries; their conditions need not be identical. Equal values may be shown once.

Legend:
[1] = system: NCI-N87 human gastric cancer cells; assay: Comparative study of the activity of camptothecins (CCK-8 cell killing); type: cell-based; conditions: Homo sapiens, NCI-N87, 96 h, read-out: Maximum Killing (%), NCI-N87, killing days 4 days
Procedure: (§1) KB oral epithelial cancer cells (purchased from: ATCC) were cultured in DMEM medium supplemented with 10% FBS; NCI-N87 human gastric cancer cells (purchased from: ATCC) were cultured in RPMI1640 medium supplemented with 10% FBS; HT29 human colon cancer cells (purchased from: ATCC) were cultured in RPMI1640 medium supplemented with 10% FBS; and BxPC-3 human pancreatic adenocarcinoma cells (purchased from: ATCC) were cultured in RPMI1640 medium supplemented with 10% FBS.
(§2) Using corresponding media described above and in cell plates, the density of KB cells was adjusted to 2×10^4/mL; the density of NCI-N87 cells was adjusted to 5×10^4/mL; the density of HT29 cells was adjusted to 5×10^4/mL, and the cells were plated onto 96-well transparent flat bottom plates, at 100 µL/well, and cultured overnight; and the density of BxPC-3 cells was adjusted to 5×10^4/mL.
(§3) Samples to be detected were diluted to 20 μM with corresponding media, then 5-fold gradient dilution was performed, and 9 concentrations were obtained. A well having cells but with no any sample added was set as the well showing maximum cell growth; and a well having no cells was set as the well of medium background. The diluted samples were added into the cell plates, at 100 μL/well, which were then incubated in a C02 incubator for 96 hours. After the incubation, CCK-8 (purchased from: DOJINDO LABORATORIES) prepared beforehand was added into the plates, at 20 μL/well, and after further 3 hours incubation in the C02 incubator, […] were read on a microplate reader.
(§4) Data obtained was fitted to a four-parameter curve using software Prism7, and equation for calculating maximum killing is: maximum killing (%)=1−(OD450 value of the well showing maximum killing—OD450 value of the well of medium background)/(OD450 value of the well showing maximum cell growth—OD450 value of the cell of medium background)[…].

[2] = system: BxPC-3 human pancreatic adenocarcinoma cells; assay: as above; type: cell-based
Procedure: as §1, §2, §3, §4

Compound: CC[C@@]1(O)C(=O)OCc2c1cc1n(c2=O)Cc2c-1nc1ccc(N)c3c1c2C(F)(F)CC3 [Compound 3]
- Emax [1]: 92.1%
- EC50 ([2]; BxPC-3, killing days 4 days): 3.23 nM and 5.82 nM
- Emax ([2]; Homo sapiens, BXPC-3, 96 h, read-out: Maximum Killing (%), BxPC-3, killing days 4 days): 98%
